Assay results reported in ChEMBL document CHEMBL3112450, “Synthesis and in vitro antitumor evaluation of primary amine substituted quinazoline linked benzimidazole” (Bioorg Med Chem Lett, 2014).

How the values were obtained:
Format in all cases: functional
MDA-MB-468 = test: Cytotoxicity against human MDA-MB-468 cells assessed as cell growth at 10^-7 M after 48 hrs by SRB assay; settings: MDA-MB-468, 48 h, read-out: Activity
NCI-H226 [1] = test: Cytotoxicity against human NCI-H226 cells assessed as cell growth at 10^-7 M after 48 hrs by SRB assay; settings: NCI-H226, 48 h, read-out: Activity
KM12 [2] = test: Cytotoxicity against human KM12 cells assessed as cell growth at 10^-4 M after 48 hrs by SRB assay; settings: KM12, 48 h, read-out: Activity
HOP-92 = test: Cytotoxicity against human HOP92 cells after 48 hrs by SRB assay; settings: HOP-92, 48 h
PC-3 = test: Cytotoxicity against human PC3 cells assessed as cell growth at 10^-8 M after 48 hrs by SRB assay; settings: PC-3, 48 h, read-out: Activity
RXF 393 = test: Cytotoxicity against human RXF393 cells assessed as cell growth at 10^-6 M after 48 hrs by SRB assay; settings: RXF 393, 48 h, read-out: Activity
RPMI-8226 [3] = test: Cytotoxicity against human RPMI8226 cells assessed as cell growth at 10^-8 M after 48 hrs by SRB assay; settings: RPMI-8226, 48 h, read-out: Activity
HCT-116 [4] = test: Cytotoxicity against human HCT116 cells assessed as cell growth at 10^-6 M after 48 hrs by SRB assay; settings: HCT-116, 48 h, read-out: Activity
KM12 [5] = test: Cytotoxicity against human KM12 cells assessed as cell growth at 10^-8 M after 48 hrs by SRB assay; settings: KM12, 48 h, read-out: Activity
BT-549 = test: Cytotoxicity against human BT549 cells assessed as cell growth at 10^-7 M after 48 hrs by SRB assay; settings: BT-549, 48 h, read-out: Activity
ACHN [6] = test: Cytotoxicity against human ACHN cells assessed as cell growth at 10^-7 M after 48 hrs by SRB assay; settings: read-out: Activity
RPMI-8226 [7] = test: Cytotoxicity against human RPMI8226 cells assessed as cell growth at 10^-4 M after 48 hrs by SRB assay; settings: RPMI-8226, 48 h, read-out: Activity
NCI-H226 [8] = test: Cytotoxicity against human NCI-H226 cells after 48 hrs by SRB assay; settings: NCI-H226, 48 h
ACHN [9] = test: Cytotoxicity against human ACHN cells assessed as cell growth at 10^-4 M after 48 hrs by SRB assay; settings: read-out: Activity
[10] = Cytotoxicity against human Hs578T cells assessed as cell growth at 10^-6 M after 48 hrs by SRB assay; settings: Hs-578T, read-out: Activity
SK-MEL-5 = test: Cytotoxicity against human SK-MEL-5 cells after 48 hrs by SRB assay; settings: SK-MEL-5, 48 h
HCT-116 [11] = test: Cytotoxicity against human HCT116 cells after 48 hrs by SRB assay; settings: HCT-116, 48 h
MCF7 = test: Cytotoxicity against human MCF7 cells assessed as cell growth at 10^-6 M after 48 hrs by SRB assay; settings: MCF7, 48 h, read-out: Activity
[12] = Cytotoxicity against human Hs578T cells assessed as cell growth at 10^-4 M after 48 hrs by SRB assay; settings: Hs-578T, read-out: Activity
SNB-19 = test: Cytotoxicity against human SNB19 cells assessed as cell growth at 10^-4 M after 48 hrs by SRB assay; settings: SNB-19, 48 h, read-out: Activity
[13] = Cytotoxicity against human NCI-ADR-RES cells assessed as cell growth at 10^-8 M after 48 hrs by SRB assay; settings: read-out: Activity
MDA-MB-435 = test: Cytotoxicity against human MDA-MB-435 cells assessed as cell growth at 10^-8 M after 48 hrs by SRB assay; settings: MDA-MB-435, 48 h, read-out: Activity
HT-29 [14] = test: Cytotoxicity against human HT-29 cells assessed as cell growth at 10^-6 M after 48 hrs by SRB assay; settings: HT-29, 48 h, read-out: Activity
SK-MEL-28 = test: Cytotoxicity against human SK-MEL-28 cells after 48 hrs by SRB assay; settings: SK-MEL-28, 48 h
CCRF-CEM = test: Cytotoxicity against human CCRF-CEM cells assessed as cell growth at 10^-6 M after 48 hrs by SRB assay; settings: read-out: Activity
HOP-62 = test: Cytotoxicity against human HOP62 cells assessed as cell growth at 10^-7 M after 48 hrs by SRB assay; settings: HOP-62, 48 h, read-out: Activity
NCI-H522 [15] = test: Cytotoxicity against human NCI-H522 cells assessed as cell growth at 10^-4 M after 48 hrs by SRB assay; settings: NCI-H522, 48 h, read-out: Activity
M14 = test: Cytotoxicity against human M14 cells assessed as cell growth at 10^-4 M after 48 hrs by SRB assay; settings: M14, 48 h, read-out: Activity
OVCAR-3 [16] = test: Cytotoxicity against human OVCAR3 cells after 48 hrs by SRB assay; settings: OVCAR-3, 48 h
[17] = Cytotoxicity against human OVCAR4 cells assessed as cell growth at 10^-7 M after 48 hrs by SRB assay; settings: OVCAR-4, 48 h, read-out: Activity
786-0 = test: Cytotoxicity against human 786-0 cells assessed as cell growth at 10^-4 M after 48 hrs by SRB assay; settings: 786-0, 48 h, read-out: Activity
HT-29 [18] = test: Cytotoxicity against human HT-29 cells after 48 hrs by SRB assay; settings: HT-29, 48 h
NCI-H522 [19] = test: Cytotoxicity against human NCI-H522 cells assessed as cell growth at 10^-8 M after 48 hrs by SRB assay; settings: NCI-H522, 48 h, read-out: Activity
OVCAR-3 [20] = test: Cytotoxicity against human OVCAR3 cells assessed as cell growth at 10^-8 M after 48 hrs by SRB assay; settings: OVCAR-3, 48 h, read-out: Activity
MDA-MB-231 = test: Cytotoxicity against human MDA-MB-231 cells after 48 hrs by SRB assay; settings: MDA-MB-231, 48 h
U-251 [21] = test: Cytotoxicity against human U251 cells assessed as cell growth at 10^-8 M after 48 hrs by SRB assay; settings: U-251, 48 h, read-out: Activity
U-251 [22] = test: Cytotoxicity against human U251 cells assessed as cell growth at 10^-6 M after 48 hrs by SRB assay; settings: U-251, 48 h, read-out: Activity
OVCAR-8 = test: Cytotoxicity against human OVCAR8 cells after 48 hrs by SRB assay; settings: OVCAR-8, 48 h
HCC 2998 = test: Cytotoxicity against human HCC2998 cells assessed as cell growth at 10^-4 M after 48 hrs by SRB assay; settings: HCC 2998, 48 h, read-out: Activity

In the case of C=CCn1c(C)nc2cc(Nc3nc(Nc4ccc5nc(C)n(CC=C)c5c4)c4ccccc4n3)ccc21, the growth at 0.1 µM (MDA-MB-468) was 89%, the growth at 0.1 µM (NCI-H226 [1]) was 82% and the growth at 100 µM (KM12 [2]) was -77%. It also gave a GI50 (HOP-92) of 0.78 µM, an LC50 (HOP-92) of 4.69 µM and a TGI (HOP-92) of 2.08 µM. For the same compound, the growth at 0.01 µM (PC-3) was 98%, the growth at 1 µM (RXF 393) was 22% and the growth at 0.01 µM (RPMI-8226 [3]) was 100%. The growth at 1 µM (HCT-116 [4]) was -54%, the growth at 0.01 µM (KM12 [5]) was 96% and the growth at 0.1 µM (BT-549) was 101%. The growth at 0.1 µM (ACHN [6]) was 103%, the growth at 100 µM (RPMI-8226 [7]) was -20% and the GI50 (NCI-H226 [8]) was 2.03 µM. The LC50 (NCI-H226 [8]) was > 100 µM, the TGI (NCI-H226 [8]) was 5.04 µM and the growth at 100 µM (ACHN [9]) was -38%. It also gave a growth at 1 µM [10] of 94%, a GI50 (SK-MEL-5) of 1.59 µM and a TGI (SK-MEL-5) of 3.69 µM. It also gave a GI50 (HCT-116 [11]) of 0.214 µM, a growth at 1 µM (MCF7) of -63% and a growth at 100 µM [12] of -21%. The growth at 100 µM (SNB-19) was -35%, the growth at 0.01 µM [13] was 103% and the growth at 0.01 µM (MDA-MB-435) was 97%. The growth at 1 µM (HT-29 [14]) was -87%, the GI50 (SK-MEL-28) was 2.02 µM and the TGI (SK-MEL-28) was 3.86 µM. It also gave a growth at 1 µM (CCRF-CEM) of -14%, a growth at 0.1 µM (HOP-62) of 99% and a growth at 100 µM (NCI-H522 [15]) of -24%. It also gave a growth at 100 µM (M14) of -4%, a GI50 (OVCAR-3 [16]) of 0.192 µM and an LC50 (OVCAR-3 [16]) of 0.701 µM. The TGI (OVCAR-3 [16]) was 0.367 µM, the growth at 0.1 µM [17] was 102% and the growth at 100 µM (786-0) was -21%. It also gave a GI50 (HT-29 [18]) of 0.19 µM, an LC50 (concentration killing 50% of cells) (HT-29 [18]) of 100 µM and a TGI (HT-29 [18]) of 0.349 µM. For the same compound, the growth at 0.01 µM (NCI-H522 [19]) was 97%, the growth at 0.01 µM (OVCAR-3 [20]) was 100% and the GI50 (MDA-MB-231) was 0.205 µM. It also gave a TGI (MDA-MB-231) of 0.417 µM, a growth at 0.01 µM (U-251 [21]) of 97% and a growth at 1 µM (U-251 [22]) of -88%. For the same compound, the GI50 (OVCAR-8) was 0.284 µM, the LC50 (OVCAR-8) was > 100 µM and the growth at 100 µM (HCC 2998) was -88%.
Work on C=CCn1c(C)nc2ccc(Nc3nc(Nc4ccc(F)cc4)nc4ccccc34)cc21 yielded a growth at 0.1 µM (MDA-MB-468) of 74%, a growth at 0.1 µM (NCI-H226 [1]) of 93% and a growth at 100 µM (KM12 [2]) of -79%. The GI50 (HOP-92) was 0.585 µM, the LC50 (HOP-92) was 36.2 µM and the TGI (HOP-92) was 6.97 µM. The growth at 0.01 µM (PC-3) was 98%, the growth at 1 µM (RXF 393) was 64% and the growth at 0.01 µM (RPMI-8226 [3]) was 106%. The growth at 1 µM (HCT-116 [4]) was 88%, the growth at 0.01 µM (KM12 [5]) was 95% and the growth at 0.1 µM (BT-549) was 94%. It also gave a growth at 0.1 µM (ACHN [6]) of 97%, a growth at 100 µM (RPMI-8226 [7]) of -36% and a GI50 (NCI-H226 [8]) of 1.78 µM. The TGI (NCI-H226 [8]) was 3.85 µM, the growth at 100 µM (ACHN [9]) was -73% and the growth at 1 µM [10] was 86%. For the same compound, the GI50 (SK-MEL-5) was 1.36 µM, the LC50 (SK-MEL-5) was 5.14 µM and the TGI (SK-MEL-5) was 2.64 µM. For the same compound, the GI50 (HCT-116 [11]) was 2.41 µM, the LC50 (concentration killing 50% of cells) (HCT-116 [11]) was 39.1 µM and the TGI (HCT-116 [11]) was 7.67 µM. The growth at 1 µM (MCF7) was 73%, the growth at 100 µM [12] was -16% and the growth at 100 µM (SNB-19) was -80%. It also gave a growth at 0.01 µM [13] of 100%, a growth at 0.01 µM (MDA-MB-435) of 97% and a growth at 1 µM (HT-29 [14]) of 91%. For the same compound, the GI50 (SK-MEL-28) was 1.65 µM, the LC50 (SK-MEL-28) was 5.94 µM and the TGI (SK-MEL-28) was 3.13 µM. For the same compound, the growth at 1 µM (CCRF-CEM) was 94%, the growth at 0.1 µM (HOP-62) was 100% and the growth at 100 µM (NCI-H522 [15]) was -58%. For the same compound, the growth at 100 µM (M14) was -44%, the GI50 (OVCAR-3 [16]) was 5.04 µM and the LC50 (OVCAR-3 [16]) was 46.3 µM. For the same compound, the TGI (OVCAR-3 [16]) was 17.8 µM, the growth at 0.1 µM [17] was 95% and the growth at 100 µM (786-0) was -71%. The GI50 (HT-29 [18]) was 3 µM, the LC50 (concentration killing 50% of cells) (HT-29 [18]) was > 100 µM and the TGI (HT-29 [18]) was 13.3 µM. It also gave a growth at 0.01 µM (NCI-H522 [19]) of 89%, a growth at 0.01 µM (OVCAR-3 [20]) of 97% and a GI50 (MDA-MB-231) of 2.37 µM. The LC50 (MDA-MB-231) was > 100 µM, the TGI (MDA-MB-231) was 8.24 µM and the growth at 0.01 µM (U-251 [21]) was 97%. The growth at 1 µM (U-251 [22]) was 83%, the GI50 (OVCAR-8) was 3.05 µM and the LC50 (OVCAR-8) was > 100 µM. For the same compound, the TGI (OVCAR-8) was 13.6 µM and the growth at 100 µM (HCC 2998) was -80%.
